Measurements reported in ChEMBL document CHEMBL1201862, “PubChem BioAssay data set” (2004).
Blank lines part the entries; values can stand above or below the compound they belong to. Activity calls are given as the source filed them.

Columns and labels:
[1] = target: T1, Delta-type opioid receptor (Homo sapiens, UniProt P41143); experiment: DOR antagonists, SAR follow-up, image-based (AID 2357); format: functional
[2] = target: T2, Kappa-type opioid receptor (Homo sapiens, UniProt P41145); experiment: kappa opioid receptor blockers, cell-based, luminescence, beta-arrestin, SAR follow-up (AID 2285); format: functional
[3] = target: T2, Kappa-type opioid receptor; experiment: KOR antagonists by imaging, SAR follow-up, image-based (AID 2348); format: functional
Mu-type opioid receptor [4] = target: T3, Mu-type opioid receptor (Homo sapiens, UniProt P35372); experiment: MOR antagonists, SAR follow-up, image-based (AID 2420); format: functional;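 note: compounds added before stimulation of receptor with agonist DAMGO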
[5] = target: T2, Kappa-type opioid receptor; experiment: KOR agonist analogs, imaging readout, SAR follow-up, image-based (AID 2359); format: functional
[6] = target: T1, Delta-type opioid receptor; experiment: DOR agonists, SAR follow-up, image-based (AID 2370); format: functional
Mu-type opioid receptor [7] = target: T3, Mu-type opioid receptor; experiment: MOR agonists by imaging, SAR follow-up, image-based (AID 2352); format: functional
HEK293 [8] = experiment: SAR Analysis of small molecule inhibitors of B-cell specific antigen receptor-induced NF-kB activation in a HEK-293T cell line using a luminescence assay - Set 2. [Related pubchem assays (depositor defined):AID435022, AID435025, AID489021]; format: functional, cell-based; details: Homo sapiens
HEK293 [9] = experiment: cytotoxicity in HEK293T NF-kB-Luc cells, SAR follow-up, cytotoxicity control for NF-kB activator project, cell-based, resazurin fluorescence (AID 493251); format: functional; details: Homo sapiens
Jurkat = experiment: SAR Analysis of small molecule inhibitors of […] specific antigen receptor-induced NF-kB activation in a Jurkat cell line using a luminescence assay - Set 3. [Related pubchem assays (depositor defined):AID435022, AID435025, AID465]; format: functional, cell-based; details: Homo sapiens
[10] = target: 26S proteasome non-ATPase regulatory subunit 14 (Homo sapiens, UniProt O00487); experiment: inhibition of proteasome subunit RPN11 – biochemical, fluorescence polarization, uHTS hits, confirmation (AID 602368); format: functional
Streptococcus = experiment: Group A Streptococcus viability loss, dose response, counter-screen for streptokinase expression inhibitor project, luminescence, BacTiterGlo (AID 1915); format: functional, organism-based;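 note: potency for reduction of bacterial viability or growth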
ORF 73 = ORF 73 (Human herpesvirus 8, UniProt O40947); experiment: inhibitors of C-LANA binding to LBS DNA, dose response, biochemical, fluorescence polarization, cherry-picked samples (AID 504725); parameters: species or system Human gammaherpesvirus 8;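 note: fluorescence polarization of a labeled DNA duplex reporting LANA DNA binding; potency is for inhibitors that block LANA binding to the DNA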
[11] = target: T4, Apoptotic protease-activating factor 1 (Homo sapiens, UniProt O14727); experiment: activation of Apaf-1 mediated apoptosis – fluorescent, uHTS hits, dose response (AID 588554); format: functional
T4 sequence (O14727 whole entry): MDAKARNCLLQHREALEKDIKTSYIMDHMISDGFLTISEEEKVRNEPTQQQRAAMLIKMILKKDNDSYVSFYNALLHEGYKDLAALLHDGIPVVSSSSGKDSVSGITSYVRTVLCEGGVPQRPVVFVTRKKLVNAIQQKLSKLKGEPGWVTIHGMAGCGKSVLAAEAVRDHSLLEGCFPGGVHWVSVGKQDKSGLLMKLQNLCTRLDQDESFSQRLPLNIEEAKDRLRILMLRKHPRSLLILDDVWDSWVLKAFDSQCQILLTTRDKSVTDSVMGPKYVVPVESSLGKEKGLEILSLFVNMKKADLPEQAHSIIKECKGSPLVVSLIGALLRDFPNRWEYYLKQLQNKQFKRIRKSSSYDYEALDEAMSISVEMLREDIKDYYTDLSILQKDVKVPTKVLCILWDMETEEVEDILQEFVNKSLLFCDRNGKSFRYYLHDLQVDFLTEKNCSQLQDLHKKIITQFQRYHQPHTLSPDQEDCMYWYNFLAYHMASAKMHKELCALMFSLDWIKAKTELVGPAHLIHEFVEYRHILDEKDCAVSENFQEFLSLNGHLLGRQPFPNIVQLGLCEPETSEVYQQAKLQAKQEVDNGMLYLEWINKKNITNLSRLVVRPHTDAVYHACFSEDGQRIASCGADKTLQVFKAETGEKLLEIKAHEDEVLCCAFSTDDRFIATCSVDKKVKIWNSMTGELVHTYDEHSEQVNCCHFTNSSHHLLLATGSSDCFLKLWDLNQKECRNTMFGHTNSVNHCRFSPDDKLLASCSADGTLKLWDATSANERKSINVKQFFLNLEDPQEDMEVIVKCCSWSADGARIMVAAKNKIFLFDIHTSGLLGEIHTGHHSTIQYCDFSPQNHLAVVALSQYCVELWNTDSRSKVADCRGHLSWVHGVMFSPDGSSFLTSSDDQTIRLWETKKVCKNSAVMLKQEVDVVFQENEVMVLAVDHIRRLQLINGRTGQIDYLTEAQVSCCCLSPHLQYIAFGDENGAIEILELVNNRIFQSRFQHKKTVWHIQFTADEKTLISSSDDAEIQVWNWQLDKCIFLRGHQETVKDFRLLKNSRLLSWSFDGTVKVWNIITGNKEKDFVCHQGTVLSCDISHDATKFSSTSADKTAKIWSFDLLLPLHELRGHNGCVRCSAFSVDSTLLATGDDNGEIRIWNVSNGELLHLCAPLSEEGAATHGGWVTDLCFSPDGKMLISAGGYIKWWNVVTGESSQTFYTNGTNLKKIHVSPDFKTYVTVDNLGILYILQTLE

[12] = target: 72 kDa type IV collagenase (Homo sapiens, UniProt P08253); experiment: Dose Response validation of uHTS RPN11 inhibitor hits using a MMP-2 Fluorescence assay.; format: functional
[13] = test system: Streptococcus sp. 'group A'; experiment: growth inhibition of control SK(-) GAS strain, dose response, counter-screen for streptokinase expression inhibitor project, luminescence, kanamycin, BacTiterGlo, confirmation (AID 1900); format: functional, organism-based
[14] = target: T5, Probable nicotinate-nucleotide adenylyltransferase (Staphylococcus aureus (strain N315), UniProt P65502); format: functional, Staphylococcus aureus subsp. aureus N315;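 for IC50 Mean: confirmatory dose-response retesting of NadD inhibitor hits first found in an ultra-high-throughput screen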
[15] = target: T5, Probable nicotinate-nucleotide adenylyltransferase; format: functional, Staphylococcus aureus subsp. aureus N315; details: read-out: IC50_Mean
Prothrombin = Prothrombin (Bos taurus, UniProt P00735); experiment: thrombin inhibition, dose response, biochemical, fluorescence polarization, uHTS hits (AID 602369); format: functional
[16] = target: T6, Alkaline phosphatase, tissue-nonspecific isozyme (Homo sapiens, UniProt P05186); experiment: TNAP enzyme inhibition by screening hits, dose response, selectivity assay for mouse IAP inhibitor project, biochemical, human TNAP, uHTS hits (AID 488906); format: functional
T6 sequence (P05186 whole entry): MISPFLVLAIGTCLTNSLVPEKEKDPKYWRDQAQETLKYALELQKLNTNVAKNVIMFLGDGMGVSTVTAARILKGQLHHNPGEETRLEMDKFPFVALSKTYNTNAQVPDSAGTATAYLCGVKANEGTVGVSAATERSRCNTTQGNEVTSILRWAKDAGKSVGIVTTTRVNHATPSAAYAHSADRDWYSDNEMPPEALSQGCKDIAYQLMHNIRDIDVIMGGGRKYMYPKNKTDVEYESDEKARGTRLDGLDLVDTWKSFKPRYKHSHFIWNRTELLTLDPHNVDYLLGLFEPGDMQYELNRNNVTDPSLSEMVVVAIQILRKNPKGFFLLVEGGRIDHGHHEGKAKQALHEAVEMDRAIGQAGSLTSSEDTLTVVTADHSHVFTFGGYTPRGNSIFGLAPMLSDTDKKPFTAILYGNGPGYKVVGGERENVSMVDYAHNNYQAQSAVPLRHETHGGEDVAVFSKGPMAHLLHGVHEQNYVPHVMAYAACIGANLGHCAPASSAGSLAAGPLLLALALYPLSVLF

[17] = target: Intestinal-type alkaline phosphatase (Homo sapiens, UniProt P09923); experiment: inhibition of human intestinal alkaline phosphatase – biochemical, dose response (AID 488876); format: functional
[18] = target: Intestinal-type alkaline phosphatase (Mus musculus, UniProt P24822); experiment: PubChem AID 488785; format: functional
Sequence of Intestinal-type alkaline phosphatase (Mus musculus, UniProt P24822) (P24822 whole entry): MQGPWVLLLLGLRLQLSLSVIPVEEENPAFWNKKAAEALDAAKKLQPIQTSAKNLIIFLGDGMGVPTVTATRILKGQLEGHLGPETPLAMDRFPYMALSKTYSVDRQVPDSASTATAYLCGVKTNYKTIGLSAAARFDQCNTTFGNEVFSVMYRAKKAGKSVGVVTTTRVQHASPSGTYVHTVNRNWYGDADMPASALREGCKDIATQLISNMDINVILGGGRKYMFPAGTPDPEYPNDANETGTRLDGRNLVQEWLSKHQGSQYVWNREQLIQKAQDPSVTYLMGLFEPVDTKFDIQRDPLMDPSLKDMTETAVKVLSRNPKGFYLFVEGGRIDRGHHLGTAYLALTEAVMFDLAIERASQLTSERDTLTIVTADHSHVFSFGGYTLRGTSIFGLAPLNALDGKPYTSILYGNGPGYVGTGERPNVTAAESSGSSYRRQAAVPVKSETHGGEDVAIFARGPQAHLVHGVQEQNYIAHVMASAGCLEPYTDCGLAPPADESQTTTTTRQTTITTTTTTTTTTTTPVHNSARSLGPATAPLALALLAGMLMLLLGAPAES

T2 sequence (P41145 whole entry): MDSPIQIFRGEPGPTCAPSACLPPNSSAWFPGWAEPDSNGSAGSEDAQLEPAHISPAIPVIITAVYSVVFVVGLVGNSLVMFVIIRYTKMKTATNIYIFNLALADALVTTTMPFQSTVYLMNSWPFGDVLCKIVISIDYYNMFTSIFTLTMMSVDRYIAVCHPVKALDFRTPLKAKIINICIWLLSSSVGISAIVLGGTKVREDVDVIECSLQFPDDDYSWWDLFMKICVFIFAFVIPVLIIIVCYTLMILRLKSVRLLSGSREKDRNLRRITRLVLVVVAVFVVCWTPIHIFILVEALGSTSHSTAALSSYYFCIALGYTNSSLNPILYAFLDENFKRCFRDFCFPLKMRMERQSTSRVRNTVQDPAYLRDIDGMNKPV
T3 sequence (P35372 whole entry): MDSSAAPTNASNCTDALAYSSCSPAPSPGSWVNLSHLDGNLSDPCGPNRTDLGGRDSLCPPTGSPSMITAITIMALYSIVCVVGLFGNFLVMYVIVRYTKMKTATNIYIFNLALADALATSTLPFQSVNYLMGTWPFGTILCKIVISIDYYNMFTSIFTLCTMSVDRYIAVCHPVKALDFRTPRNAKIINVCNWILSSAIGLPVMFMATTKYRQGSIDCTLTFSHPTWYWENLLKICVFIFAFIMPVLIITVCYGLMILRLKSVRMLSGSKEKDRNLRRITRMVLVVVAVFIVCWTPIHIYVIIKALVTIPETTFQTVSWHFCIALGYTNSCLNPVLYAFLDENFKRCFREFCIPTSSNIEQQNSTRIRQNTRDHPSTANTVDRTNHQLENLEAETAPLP
T1 sequence (P41143 whole entry): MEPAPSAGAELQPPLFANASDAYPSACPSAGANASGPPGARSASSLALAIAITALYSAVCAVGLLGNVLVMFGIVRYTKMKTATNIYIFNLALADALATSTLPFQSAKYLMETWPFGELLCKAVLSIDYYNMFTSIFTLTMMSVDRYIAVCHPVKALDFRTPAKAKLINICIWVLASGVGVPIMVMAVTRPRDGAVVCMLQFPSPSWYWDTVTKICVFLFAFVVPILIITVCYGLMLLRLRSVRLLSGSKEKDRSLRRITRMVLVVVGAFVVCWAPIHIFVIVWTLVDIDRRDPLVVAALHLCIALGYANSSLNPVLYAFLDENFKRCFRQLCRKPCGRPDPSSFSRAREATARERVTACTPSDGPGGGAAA
Sequence of 26S proteasome non-ATPase regulatory subunit 14 (O00487 whole entry): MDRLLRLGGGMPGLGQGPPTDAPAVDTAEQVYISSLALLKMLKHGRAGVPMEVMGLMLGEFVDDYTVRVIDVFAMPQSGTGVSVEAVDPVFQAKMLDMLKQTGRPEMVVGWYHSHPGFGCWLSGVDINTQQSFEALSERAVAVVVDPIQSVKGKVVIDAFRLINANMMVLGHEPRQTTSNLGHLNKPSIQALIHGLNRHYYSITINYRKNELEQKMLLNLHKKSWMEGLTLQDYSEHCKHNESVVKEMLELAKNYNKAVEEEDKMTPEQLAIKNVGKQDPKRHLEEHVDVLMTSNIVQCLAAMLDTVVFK
Sequence of Intestinal-type alkaline phosphatase (Homo sapiens, UniProt P09923) (P09923 whole entry): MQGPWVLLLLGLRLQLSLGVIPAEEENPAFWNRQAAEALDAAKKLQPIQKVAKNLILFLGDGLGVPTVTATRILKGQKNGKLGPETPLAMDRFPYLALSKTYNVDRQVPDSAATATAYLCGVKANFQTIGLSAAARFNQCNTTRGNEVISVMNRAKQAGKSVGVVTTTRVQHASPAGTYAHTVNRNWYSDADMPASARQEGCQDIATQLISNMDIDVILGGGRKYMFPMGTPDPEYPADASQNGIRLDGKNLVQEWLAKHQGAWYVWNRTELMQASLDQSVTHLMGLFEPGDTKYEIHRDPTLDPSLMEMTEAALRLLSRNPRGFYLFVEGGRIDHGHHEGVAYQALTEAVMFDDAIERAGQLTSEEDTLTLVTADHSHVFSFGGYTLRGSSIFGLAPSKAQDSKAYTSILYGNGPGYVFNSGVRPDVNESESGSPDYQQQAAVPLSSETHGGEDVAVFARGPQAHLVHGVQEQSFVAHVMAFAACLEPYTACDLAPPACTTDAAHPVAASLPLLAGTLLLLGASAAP
Sequence of 72 kDa type IV collagenase (P08253 whole entry): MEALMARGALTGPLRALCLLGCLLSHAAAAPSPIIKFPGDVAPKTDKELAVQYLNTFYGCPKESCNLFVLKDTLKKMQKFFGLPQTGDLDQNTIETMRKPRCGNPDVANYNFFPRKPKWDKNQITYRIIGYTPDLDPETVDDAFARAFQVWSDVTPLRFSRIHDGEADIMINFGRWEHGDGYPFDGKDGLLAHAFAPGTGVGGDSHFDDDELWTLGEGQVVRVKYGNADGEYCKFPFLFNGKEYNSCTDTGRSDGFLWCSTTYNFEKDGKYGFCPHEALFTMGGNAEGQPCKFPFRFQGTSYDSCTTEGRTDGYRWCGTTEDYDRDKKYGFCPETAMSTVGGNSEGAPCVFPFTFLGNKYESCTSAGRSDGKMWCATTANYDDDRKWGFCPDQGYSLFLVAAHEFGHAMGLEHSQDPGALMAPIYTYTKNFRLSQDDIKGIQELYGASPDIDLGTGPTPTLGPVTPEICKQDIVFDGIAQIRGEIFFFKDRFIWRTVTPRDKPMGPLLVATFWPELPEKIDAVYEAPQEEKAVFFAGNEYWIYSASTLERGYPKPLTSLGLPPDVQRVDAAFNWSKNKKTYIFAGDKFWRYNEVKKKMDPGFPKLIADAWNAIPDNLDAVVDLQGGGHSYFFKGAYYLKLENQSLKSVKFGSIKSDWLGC
Sequence of ORF 73 (O40947 whole entry): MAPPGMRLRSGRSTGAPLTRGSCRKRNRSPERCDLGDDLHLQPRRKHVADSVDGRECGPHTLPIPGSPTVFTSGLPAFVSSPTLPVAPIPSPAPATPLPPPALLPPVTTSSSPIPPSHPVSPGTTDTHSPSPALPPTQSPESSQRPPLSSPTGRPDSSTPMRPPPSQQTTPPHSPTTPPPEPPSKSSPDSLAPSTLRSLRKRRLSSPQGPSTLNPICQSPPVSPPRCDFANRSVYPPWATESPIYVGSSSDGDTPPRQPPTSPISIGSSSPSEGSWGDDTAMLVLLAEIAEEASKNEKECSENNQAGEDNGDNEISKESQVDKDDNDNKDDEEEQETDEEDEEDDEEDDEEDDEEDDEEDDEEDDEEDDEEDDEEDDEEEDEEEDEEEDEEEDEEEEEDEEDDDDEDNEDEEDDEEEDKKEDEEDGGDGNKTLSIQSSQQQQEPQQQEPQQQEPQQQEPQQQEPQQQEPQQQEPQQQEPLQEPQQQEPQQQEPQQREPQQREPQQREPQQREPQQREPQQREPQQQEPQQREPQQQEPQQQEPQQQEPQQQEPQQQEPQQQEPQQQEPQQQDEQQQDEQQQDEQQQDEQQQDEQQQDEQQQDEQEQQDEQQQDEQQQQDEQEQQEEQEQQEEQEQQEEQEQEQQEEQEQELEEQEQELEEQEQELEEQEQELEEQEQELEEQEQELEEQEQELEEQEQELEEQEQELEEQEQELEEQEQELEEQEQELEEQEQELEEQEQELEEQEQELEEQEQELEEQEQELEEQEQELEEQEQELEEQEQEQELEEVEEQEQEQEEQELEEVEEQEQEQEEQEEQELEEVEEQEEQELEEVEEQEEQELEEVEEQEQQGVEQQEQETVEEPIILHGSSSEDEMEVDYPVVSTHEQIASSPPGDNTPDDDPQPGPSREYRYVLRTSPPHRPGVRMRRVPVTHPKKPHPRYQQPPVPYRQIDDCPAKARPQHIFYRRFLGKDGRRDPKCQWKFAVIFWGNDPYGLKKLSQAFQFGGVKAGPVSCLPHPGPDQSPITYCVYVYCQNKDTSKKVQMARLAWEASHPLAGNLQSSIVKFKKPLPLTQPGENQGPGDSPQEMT

IC50 [1]: > 32 µM (inactive) | IC50 [2]: > 10 µM (inactive) | IC50 [3]: 24 µM (inactive) | IC50 (Mu-type opioid receptor [4]): > 32 µM (inactive) | EC50 [5]: > 32 µM (inactive) | EC50 [6]: > 32 µM (inactive) | EC50 (Mu-type opioid receptor [7]): > 32 µM (inactive)
SMILES: COc1ccc(S(=O)(=O)NCc2ccc(C(=O)NCCN(C)Cc3ccccc3)cc2)cc1

SMILES: CCCCNC(=O)CSCc1nc(-c2ccc(OCC)cc2)oc1C
IC50 (HEK293 [8]): 38.8 µM (inactive) | IC50 (HEK293 [9]): 75.3 µM (inactive) | IC50 (Jurkat): > 80 µM (inactive)

SMILES: C=CC1=C(C(=O)O)N2C(=O)[C@@H](NC(=O)/C(=N/OCC(=O)O)c3csc(N)n3)[C@H]2SC1
IC50 [10]: 1.04 µM (active) | EC50 (Streptococcus): < 0.06 µM (active) | AC50 (ORF 73): 34.8 µM (active) | EC50 [11]: 9.93 µM (active) | IC50 [12]: 0.0764 µM (active) | EC50 [13]: < 0.06 µM (active) | IC50 [14]: 0.5 µM (active) | IC50 [15]: 4.25 µM (active) | IC50 (Prothrombin): 68.6 µM (active)

IC50 [16]: > 100 µM (inactive) | IC50 [17]: > 100 µM (inactive) | IC50 [18]: 6.39 µM (active)
SMILES: CC(C)(C)c1ccc(O)c(/N=C/c2cc3c(cc2[N+](=O)[O-])OCO3)c1
